Assay results: article PMC6683251, “Flavanol Bioavailability in Two Cocoa Products with Different Phenolic Content. A Comparative Study in Humans” (Nutrients, 2019)
Where two headings read alike, the source gives them in different places.

Key:
[1] = Plasma nutrikinetics of flavanol metabolites after a single serving of soluble cocoa product (HPLC-ESI-QToF-MS); type: in vivo, human; details: for Detection of un-metabolized compound in the collected biological fluids: plasma and urine, CC and CC-PP; for AUC: human plasma 0-8 h; for AUC / Tmax / Cmax: mean ± SD, n = 13; for Tmax / Cmax: human plasma; for Cmax: read-out: Cmax
Protocol: The study was carried out in thirteen healthy subjects (3 men and 10 women); the mens’ average age and body mass index were 26.67 ± 3.21 year and 22.47 ± 2.97 kg/m^2, respectively, and womens’ were 32.60 ± 9.85 year and 23.36 ± 3.73 kg/m^2, respectively. They were non-smoker, non-vegetarian, non-pregnant women, who were not taking any medication or nutritional supplements, and were not suffering from any chronic pathology or gastrointestinal disorder. The sample size was estimated attending to similar previous bioavailability studies. The volunteers gave their informed consent prior to participation.
(§1) The present randomized, single-blind study was carried out at the Human Nutrition Unit (HNU) of the Institute of Food Science, Technology and Nutrition (ICTAN). Volunteers attended the HNU on two days, separated by two weeks. Three days previous to each visit, participants were instructed not to consume cocoa products (chocolate, soluble cocoa, etc.), juices, tea, wine, grape must, oranges, tangerines, apples, grapes, strawberries or other berries, beets, onions, soybeans and soy derivatives. In addition, volunteers were asked to complete a 24 h food intake recall the day before they attended the HNU in order to monitor any possible food restriction incompliance.
On each intervention day, volunteers arrived at the HNU after an overnight fast. Prior to the intake of the soluble cocoa product, a nurse inserted a cannula in the cubital vein of the non-prevailing arm of the volunteers and blood samples were collected into EDTA-coated tubes at baseline (t = 0) and 0.5, 1, 2, 3, 4, 6, and 8 h after consuming the corresponding cocoa product. The soluble cocoa products, either 15 g of CC or 25 g CC-PP, were dissolved in 200 mL of semi-skimmed milk following manufacturer’s preparation instructions. Plasma was separated by centrifugation (10 min, 3000 rpm, 4 °C) and stored at −80 °C until further analysis. Urine samples were collected at different time intervals (t = −2–0, 0–4, 4–8, 8–12, and 12–24 h) in urine collection flasks that contained 0.5 g of ascorbic acid as preservative and were aliquoted and frozen at −20 °C until analysis. A polyphenol-free breakfast, lunch and afternoon snack were provided 2 h, 4 h, and 8 h after consumption of cocoa products, and water and isotonic beverages were available ad libitum.
A liquid–liquid extraction and protein precipitation with acetonitrile was used to isolate metabolites from plasma. A 1 mL defrosted plasma sample was mixed with 50 μL of ascorbic acid (0.2 g/mL). After vortexing the aqueous mixture, it was added drop wise to 750 μL of cold acetonitrile and vortexed for 2 min before centrifuging at 12,000 rpm for 10 min at 4 °C. The supernatant was separated, and the pellet was re-extracted twice more following the same procedure. Supernatants were combined and reduced to dryness under a stream of nitrogen at 30 °C. The dried samples were resuspended in 150 μL of aqueous formic acid (0.1%) containing 10% acetonitrile acidified with 0.1% formic acid and centrifuged at 4 °C for 20 min at 14,000 rpm. The final supernatant was collected, filtered (0.45 μm pore-size, cellulose-acetate membrane filters, Albet, Dassel (Germany)) and 30 μL were analyzed by high-performance liquid chromatography coupled to electrospray ionisation and quadrupole time-of-flight mass spectrometry (HPLC-ESI-QToF-MS).
Analyses were performed on an Agilent 1200 series LC system coupled to an Agilent 6530A Accurate-Mass Quadrupole Time-Of-Flight (Q-ToF) with ESI-Jet Stream Technology (Agilent Technologies). Compounds were separated on a reverse-phase Ascentis Express C18 (15 cm × 3 mm, […]) column (Sigma-Aldrich Química, Madrid) preceded by a Supelco 55215-U guard column at 30 °C. […]

[2] = Urinary excretion of flavanol metabolites (0-24 h) after a single serving of soluble cocoa product (HPLC-ESI-QToF-MS); type: in vivo, human; details: mean ± SD, n = 13; for Excreted in urine, Total: 24 h urine; for Excreted in urine, Basal: basal urine (−2–0 h, before intake)
Protocol: They were non-smoker, non-vegetarian, non-pregnant women, who were not taking any medication or nutritional supplements, and were not suffering from any chronic pathology or gastrointestinal disorder. The sample size was estimated attending to similar previous bioavailability studies. The volunteers gave their informed consent prior to participation.
as §1, with “derivatives.” for “derivatives. In addition, volunteers were asked to complete a 24 h food intake recall the day before they attended the HNU in order to monitor any possible food restriction incompliance.”
On each intervention day, volunteers arrived at the HNU after an overnight fast. […] The soluble cocoa products, either 15 g of CC or 25 g CC-PP, were dissolved in 200 mL of semi-skimmed milk following manufacturer’s preparation instructions. Plasma was separated by centrifugation (10 min, 3000 rpm, 4 °C) and stored at −80 °C until further analysis. […] A polyphenol-free breakfast, lunch and afternoon snack were provided 2 h, 4 h, and 8 h after consumption of cocoa products, and water and isotonic beverages were available ad libitum.
Urine samples were diluted with an equivalent volume of Milli-Q water (50%) and centrifuged at 14000 rpm (10 min, 4 °C). Supernatants were filtered (0.45 μm pore-size cellulose-acetate membrane filters) and a 5 µL aliquot was directly injected into the LC-ESI-QToF-MS equipment.
The test samples, either 30 μL of the plasma extract or 5 μL of diluted urine, were injected and separated using a mobile phase consisting of Milli-Q water (phase A) and acetonitrile (phase B), both containing 0.1% formic acid, at a flow rate of 0.3 mL/min. The mobile phase was initially programmed with 90% of solvent A and 10% of B. The elution program increased to 30% of solvent B in 10 min. Then, the initial conditions (10% solvent B) were recovered in 5 min and maintained for 5 min.
Due to the lack of standards for certain phase II metabolites, they were tentatively quantified using the calibration curves of their corresponding phenolic precursors. […] The rest of microbial metabolites identified, derivatives of hydroxyphenylpropionic, hydroxyphenylacetic, hydroxybenzoic and hippuric acids, were quantified using their respective commercially available standards. Urine concentration of the excreted metabolites was normalized by the volume excreted in each studied interval. […] Calibration curves were freshly prepared in a pool of both plasma and urine due to matrix effects.
Statistical analyses were carried out using the program SPSS (version 23.0, SPSS, Inc., IBM Company, New York, NY, USA). Significant differences between metabolites excreted in urine after consumption of CC and CC-PP cocoa products were evaluated based on non-parametric Wilcoxon test (p < 0.05). To determine the absorption and elimination of epicatechin metabolites after consumption of the soluble cocoa products, metabolite nutrikinetics were studied using the pharmacokinetic functions of Microsoft Excel, calculating the maximum concentration (Cmax), area under curve (AUC) and time to reach maximum concentration (Tmax). Data are expressed as mean ± standard deviation.

[3] = both sexes, oral, after CC-PP (68.25 mg flavanols), read-out: AUC
[4] = both sexes, oral, after CC-PP (68.25 mg flavanols), read-out: Tmax
[5] = both sexes, oral, after CC-PP (25 g in 200 mL semi-skimmed milk, 68.25 mg flavanols)
[6] = after CC-PP (68.25 mg flavanols)

Row | Compound | Excreted in urine, Total ([2]; after CC (19.80 mg flavanols)) | Excreted in urine, 0–4 h ([2]; after CC (19.80 mg flavanols)) | Excreted in urine, 4–8 h ([2]; after CC (19.80 mg flavanols)) | Excreted in urine, 8–12 h ([2]; after CC (19.80 mg flavanols)) | Excreted in urine, 12–24 h ([2]; after CC (19.80 mg flavanols)) | Excreted in urine, Total [2, 6] | Excreted in urine, 0–4 h [2, 6] | Excreted in urine, 4–8 h [2, 6] | Excreted in urine, 8–12 h [2, 6] | Excreted in urine, 12–24 h [2, 6] | further results
1 | O.Oc1cc(O)c2c(c1)O[C@H](c1ccc(O)c(O)c1)[C@@H](O)C2 [catechin] |  |  |  |  |  |  |  |  |  |  | Detection of un-metabolized compound in the collected biological fluids [1]: Neither un-metabolized epicatechin and catechin nor procyanidins B1 and B2 were detected
2 | COc1cc([C@H]2Oc3cc(OS(=O)(=O)O)cc(O)c3C[C@H]2O)ccc1O (single isomer, unassigned) [Epicatechin-methoxy-sulfate (isomer 2), Epicatechin-methoxy-sulfate] | 0.428 ± 0.062 µmol | 0.181 ± 0.032 µmol | 0.247 ± 0.030 µmol | <L.Q. | <L.Q. | 1.200 ± 0.293 µmol | 0.566 ± 0.152 µmol | 0.557 ± 0.120 µmol | 0.077 ± 0.021 µmol | <L.Q. | AUC [1, 3]: 0.145 ± 0.107 µM·h; Tmax [1, 4]: 1.3 ± 0.5 h; Cmax [1, 5]: 41 ± 4 nM
3 | O=S(=O)(O)Oc1cc([C@H]2Oc3cc(O)cc(O)c3C[C@H]2O)ccc1O [Epicatechin-3′-sulfate] | 2.417 ± 0.439 µmol | 1.323 ± 0.236 µmol | 1.018 ± 0.178 µmol | 0.076 ± 0.025 µmol | <L.Q. | 7.357 ± 1.523 µmol | 3.627 ± 0.797 µmol | 3.572 ± 0.662 µmol | 0.158 ± 0.038 µmol | <L.Q. | AUC ([1]; both sexes, oral, 19.8 mg, after CC (19.80 mg flavanols), read-out: AUC): 0.101 ± 0.023 µM·h; Tmax ([1]; both sexes, oral, 19.8 mg, after CC (19.80 mg flavanols), read-out: Tmax): 1 ± 0.1 h; AUC [1, 3]: 0.109 ± 0.076 µM·h; Cmax ([1]; both sexes, oral, after CC (15 g in 200 mL semi-skimmed milk, 19.80 mg flavanols)): 26 ± 3 nM; Tmax [1, 4]: 1.2 ± 0.5 h; Cmax [1, 5]: 42 ± 4 nM
4 | 5-Phenyl-γ-valerolactone-methoxy-glucuronide [PVL-methoxy-glucuronide] |  |  |  |  |  |  |  |  |  |  | AUC ([1]; after CC (19.80 mg flavanols)): 0.078 ± 0.032; AUC [1, 6]: 0.091 ± 0.059; Tmax ([1]; after CC (19.80 mg flavanols)): 5.3 ± 1.0 h; Cmax ([1]; after CC (15 g in 200 mL semi-skimmed milk, 19.80 mg flavanols)): 22 ± 1 nM; Tmax [1, 6]: 5.6 ± 1.3 h; Cmax ([1]; after CC-PP (25 g in 200 mL semi-skimmed milk, 68.25 mg flavanols)): 27 ± 3 nM
5 | Oc1cc(O)c2c(c1)O[C@H](c1ccc(O)c(O)c1)[C@H](O)[C@H]2c1c(O)cc(O)c2c1O[C@H](c1ccc(O)c(O)c1)[C@@H](O)C2 [procyanidins B1, procyanidin B1] |  |  |  |  |  |  |  |  |  |  | Detection of un-metabolized compound in the collected biological fluids [1]: Neither un-metabolized epicatechin and catechin nor procyanidins B1 and B2 were detected
6 | O=C(O)Cc1ccc(O)c(O)c1 [3,4-Dihydroxyphenylacetic acid] | 1.525 ± 0.974 µmol | 0.648 ± 0.505 µmol | 0.556 ± 0.379 µmol | 0.094 ± 0.033 µmol | 0.133 ± 0.020 µmol | 2.153 ± 0.401 µmol | 0.751 ± 0.057 µmol | 0.556 ± 0.096 µmol | 0.198 ± 0.037 µmol | 0.539 ± 0.196 µmol | Excreted in urine, Basal ([2]; CC intervention): 0.094 ± 0.032 µmol; Excreted in urine, Basal ([2]; CC-PP intervention): 0.109 ± 0.015 µmol
7 | O=C1CCC(Cc2ccc(O[C@@H]3O[C@H](C(=O)O)[C@@H](O)[C@H](O)[C@H]3O)c(O)c2)O1 (stereo partly shown) [HPVL-4′-glucuronide, 5-(3′-Hydroxyphenyl)-γ-valerolactone-4′-glucuronide] |  | <L.Q. |  | <L.Q. | <L.Q. | 0.961 ± 0.151 µmol | <L.Q. | 0.330 ± 0.111 µmol | 0.550 ± 0.015 µmol | 0.081 ± 0.025 µmol | Excreted in urine, Basal ([2]; CC intervention): <L.Q.; Excreted in urine, Basal ([2]; CC-PP intervention): <L.Q.
8 | 4-Hydroxy-5-(hydroxyphenyl)valeric acid-glucuronide [HHPVA-glucuronide] |  |  |  |  |  | 1.052 ± 0.182 µmol | <L.Q. | 0.714 ± 0.088 µmol | 0.087 ± 0.019 µmol | 0.251 ± 0.075 µmol | 
